{"source": "PubChem BioAssay AID1259407", "about": "(Chemical Carcinogenesis Research Information System (CCRIS), 2018)", "tested_on": "CCRIS mutagenicity, Ames/micronucleus/aberration tests", "test": "CCRIS mutagenicity studies", "key": {"[1]": {"conditions": "Test System: AMES SALMONELLA TYPHIMURIUM, Strain/Indicator: TA98, Metabolic Activation: NONE, Method: PREINCUBATION"}, "[2]": {"conditions": "Test System: AMES SALMONELLA TYPHIMURIUM, Strain/Indicator: TA100, Metabolic Activation: NONE, Method: PREINCUBATION"}, "[3]": {"conditions": "Test System: AMES SALMONELLA TYPHIMURIUM, Strain/Indicator: TA1538, Metabolic Activation: NONE, Method: STANDARD PLATE"}, "[4]": {"conditions": "Test System: AMES SALMONELLA TYPHIMURIUM, Strain/Indicator: TA1538, Metabolic Activation: RAT, LIVER, S-9, AROCLOR 1254, Method: STANDARD PLATE"}}, "note": "Activity calls are given as the source filed them. How the calls were made is not given here."}
{"smiles": "c1cc2ccc3cccc4ccc(c1)c2c34", "values": [{"measurement": "mutagenic call", "setting": "End Point: IN VITRO MICRONUCLEUS, Test System: CHO CELLS, Metabolic Activation: RAT, LIVER, S-9, AROCLOR 1254", "result": "inactive; negative"}, {"measurement": "mutagenic call", "setting": "End Point: IN VITRO MICRONUCLEUS, Test System: V79 CELLS, Metabolic Activation: NONE", "result": "inactive; negative"}, {"measurement": "mutagenic call", "setting": "Test System: AMES SALMONELLA TYPHIMURIUM, Strain/Indicator: TA97, Metabolic Activation: NONE, Method: STANDARD PLATE", "result": "inactive; negative"}, {"measurement": "mutagenic call", "setting": "Test System: AMES SALMONELLA TYPHIMURIUM, Strain/Indicator: TA97, Metabolic Activation: RAT, LIVER, S-9, AROCLOR 1254, Method: STANDARD PLATE", "result": "active; positive"}, {"measurement": "mutagenic call", "setting": "Test System: AMES SALMONELLA TYPHIMURIUM, Strain/Indicator: TA97, Metabolic Activation: RAT, LIVER, S-9, PCB, Method: STANDARD PLATE", "result": "active; positive"}, {"measurement": "mutagenic call", "setting": "Test System: AMES SALMONELLA TYPHIMURIUM, Strain/Indicator: TA97A, Metabolic Activation: RAT, LIVER, S-9, AROCLOR 1254, Method: STANDARD PLATE", "result": "active; positive"}, {"measurement": "mutagenic call", "setting": "[1]", "result": "inactive; negative"}, {"measurement": "mutagenic call", "setting": "Test System: AMES SALMONELLA TYPHIMURIUM, Strain/Indicator: TA98, Metabolic Activation: NONE, Method: STANDARD PLATE", "result": "inactive; negative"}, {"measurement": "mutagenic call", "setting": "Test System: AMES SALMONELLA TYPHIMURIUM, Strain/Indicator: TA98, Metabolic Activation: RAT, LIVER, S-9, AROCLOR 1254, Method: PREINCUBATION", "result": "inactive; negative"}, {"measurement": "mutagenic call", "setting": "Test System: AMES SALMONELLA TYPHIMURIUM, Strain/Indicator: TA98, Metabolic Activation: RAT, LIVER, S-9, AROCLOR 1254, Method: STANDARD PLATE", "result": "inactive; negative"}, {"measurement": "mutagenic call", "setting": "Test System: AMES SALMONELLA TYPHIMURIUM, Strain/Indicator: TA98, Metabolic Activation: RAT, LIVER, S-9, PCB, Method: STANDARD PLATE", "result": "active; positive"}, {"measurement": "mutagenic call", "setting": "Test System: AMES SALMONELLA TYPHIMURIUM, Strain/Indicator: TA100, Metabolic Activation: MOUSE, LIVER, MICROSOMES, BENZO[E]PYRENE AND TCDD, Method: STANDARD PLATE", "result": "inactive; negative"}, {"measurement": "mutagenic call", "setting": "[2]", "result": "inactive; negative"}, {"measurement": "mutagenic call", "setting": "Test System: AMES SALMONELLA TYPHIMURIUM, Strain/Indicator: TA100, Metabolic Activation: NONE, Method: STANDARD PLATE", "result": "inactive; negative"}, {"measurement": "mutagenic call", "setting": "Test System: AMES SALMONELLA TYPHIMURIUM, Strain/Indicator: TA100, Metabolic Activation: RAT, LIVER, S-9, AROCLOR 1254, Method: PREINCUBATION", "result": "inactive; negative"}, {"measurement": "mutagenic call", "setting": "Test System: AMES SALMONELLA TYPHIMURIUM, Strain/Indicator: TA100, Metabolic Activation: RAT, LIVER, S-9, PCB, Method: STANDARD PLATE", "result": "inactive; negative"}, {"measurement": "mutagenic call", "setting": "Test System: AMES SALMONELLA TYPHIMURIUM, Strain/Indicator: TA1537, Metabolic Activation: RAT, LIVER, S-9, AROCLOR 1254, Method: STANDARD PLATE", "result": "active; positive"}, {"measurement": "mutagenic call", "setting": "Test System: CHINESE HAMSTER OVARY, Strain/Indicator: CHO (HGPRT)/6-THIOGUANINE, Metabolic Activation: NONE, Method: STANDARD PLATE", "result": "inactive; negative"}, {"measurement": "mutagenic call", "setting": "Test System: CHINESE HAMSTER OVARY, Strain/Indicator: CHO (HGPRT)/6-THIOGUANINE, Metabolic Activation: RAT, LIVER, S-9, AROCLOR 1254, Method: STANDARD PLATE", "result": "inactive; negative"}, {"measurement": "mutagenic call", "setting": "Test System: CHINESE HAMSTER OVARY, Strain/Indicator: CHO-K1-BH4 (HGPRT)/6-THIOGUANINE, Metabolic Activation: NONE, Method: SUSPENSION/PLATE", "result": "inactive; negative"}, {"measurement": "mutagenic call", "setting": "Test System: CHINESE HAMSTER OVARY, Strain/Indicator: CHO-K1-BH4 (HGPRT)/6-THIOGUANINE, Metabolic Activation: S-9, Method: SUSPENSION/PLATE", "result": "inactive; negative"}, {"measurement": "mutagenic call", "setting": "Test System: CHINESE HAMSTER OVARY, Strain/Indicator: CHO-K1-BH4 (HGPRT), Metabolic Activation: NONE, Method: SUSPENSION/PLATE", "result": "inactive; negative"}, {"measurement": "mutagenic call", "setting": "Test System: CHINESE HAMSTER OVARY, Strain/Indicator: CHO-K1-BH4 (HGPRT), Metabolic Activation: RAT, LIVER, S-9, AROCLOR, Method: SUSPENSION/PLATE", "result": "inactive; negative"}, {"measurement": "mutagenic call", "setting": "Test System: E. COLI, Strain/Indicator: WP2 UVRA, Metabolic Activation: HAMSTER, LIVER, S-9, AROCLOR 1254, Method: STANDARD PLATE", "result": "inactive; negative"}, {"measurement": "mutagenic call", "setting": "Test System: E. COLI, Strain/Indicator: WP2 UVRA, Metabolic Activation: HAMSTER, LIVER, S-9, Method: STANDARD PLATE", "result": "inactive; negative"}, {"measurement": "mutagenic call", "setting": "Test System: E. COLI, Strain/Indicator: WP2 UVRA, Metabolic Activation: MOUSE, LIVER, S-9, AROCLOR 1254, Method: STANDARD PLATE", "result": "inactive; negative"}, {"measurement": "mutagenic call", "setting": "Test System: E. COLI, Strain/Indicator: WP2 UVRA, Metabolic Activation: MOUSE, LIVER, S-9, Method: STANDARD PLATE", "result": "inactive; negative"}, {"measurement": "mutagenic call", "setting": "Test System: E. COLI, Strain/Indicator: WP2 UVRA, Metabolic Activation: NONE, Method: STANDARD PLATE", "result": "inactive; negative"}, {"measurement": "mutagenic call", "setting": "Test System: E. COLI, Strain/Indicator: WP2 UVRA, Metabolic Activation: RAT, LIVER, S-9, AROCLOR 1254, Method: STANDARD PLATE", "result": "inactive; negative"}, {"measurement": "mutagenic call", "setting": "Test System: E. COLI, Strain/Indicator: WP2 UVRA, Metabolic Activation: RAT, LIVER, S-9, Method: STANDARD PLATE", "result": "inactive; negative"}, {"measurement": "mutagenic call", "setting": "Test System: MOUSE LYMPHOMA, Strain/Indicator: L5178Y (TK+/TK-), Metabolic Activation: NONE, Method: SUSPENSION/PLATE", "result": "inactive; negative"}, {"measurement": "mutagenic call", "setting": "Test System: MOUSE LYMPHOMA, Strain/Indicator: L5178Y (TK+/TK-), Metabolic Activation: RAT, LIVER, S-9, AROCLOR 1254, Method: SUSPENSION/PLATE", "result": "active; positive"}, {"measurement": "mutagenic call", "setting": "Test System: MOUSE LYMPHOMA, Strain/Indicator: L5178Y (TK+/TK-), Metabolic Activation: S-9, Method: SUSPENSION/PLATE", "result": "active; positive"}, {"measurement": "mutagenic call", "setting": "Test System: UDS RAT HEPATOCYTES, Strain/Indicator: BROMODEOXYURIDINE INCORP, Metabolic Activation: NONE, Method: FLOW CYTOMETRIC ANALYSIS", "result": "inactive; negative"}, {"measurement": "mutagenic call", "setting": "Test System: UDS RAT HEPATOCYTES, Strain/Indicator: THY INCORP, Metabolic Activation: NONE, Method: AUTORADIOGRAPHY", "result": "inactive; negative"}, {"measurement": "mutagenic call", "setting": "Test System: UDS RODENT HEPATOCYTES, Strain/Indicator: THY INCORP, Metabolic Activation: NONE, Method: AUTORADIOGRAPHY", "result": "inactive; negative"}, {"measurement": "mutagenic call", "setting": "Test System: UDS, Strain/Indicator: HEPG2/THYMIDINE INCORPORATION, Metabolic Activation: NONE, Method: AUTORADIOGRAPHY", "result": "inactive; negative"}]}
{"smiles": "CCC(C)COC(=O)/C=C/c1ccc(N=Cc2ccc(OC)cc2)cc1", "note": "(centres undefined)", "values": [{"measurement": "mutagenic call", "setting": "Test System: AMES SALMONELLA TYPHIMURIUM, Strain/Indicator: TA98, Metabolic Activation: HAMSTER, LIVER, S-9, AROCLOR 1254 (30%), Method: PREINCUBATION", "result": "inactive; negative"}, {"measurement": "mutagenic call", "setting": "[1]", "result": "inactive; negative"}, {"measurement": "mutagenic call", "setting": "Test System: AMES SALMONELLA TYPHIMURIUM, Strain/Indicator: TA98, Metabolic Activation: RAT, LIVER, S-9, AROCLOR 1254 (30%), Method: PREINCUBATION", "result": "active; positive"}, {"measurement": "mutagenic call", "setting": "Test System: AMES SALMONELLA TYPHIMURIUM, Strain/Indicator: TA100, Metabolic Activation: HAMSTER, LIVER, S-9, AROCLOR 1254 (30%), Method: PREINCUBATION", "result": "active; positive"}, {"measurement": "mutagenic call", "setting": "[2]", "result": "inactive; negative"}, {"measurement": "mutagenic call", "setting": "Test System: AMES SALMONELLA TYPHIMURIUM, Strain/Indicator: TA100, Metabolic Activation: RAT, LIVER, S-9, AROCLOR 1254 (30%), Method: PREINCUBATION", "result": "active; positive"}]}
{"smiles": "O=c1ccc2cc3c4c(c2o1)CCCN4CCC3", "values": [{"measurement": "mutagenic call", "setting": "[3]", "result": "inactive; negative"}, {"measurement": "mutagenic call", "setting": "[4]", "result": "active; positive"}]}
{"smiles": "CCCCN(CC)c1c([N+](=O)[O-])cc(C(F)(F)F)cc1[N+](=O)[O-]", "values": [{"measurement": "mutagenic call", "setting": "End Point: In vitro Chromosomal aberration, Test System: CHO cells, Metabolic Activation: None", "result": "inactive; negative"}, {"measurement": "mutagenic call", "setting": "End Point: In vitro Chromosomal aberration, Test System: CHO cells, Metabolic Activation: Rodent, liver, S-9, Aroclor", "result": "inactive; negative"}]}
{"smiles": "CCN(CC)c1ccc(-c2ccccc2)c(-c2ccccc2)c1N(CC)CC", "values": [{"measurement": "mutagenic call", "setting": "[3]", "result": "active; positive"}, {"measurement": "mutagenic call", "setting": "[4]", "result": "active; positive"}]}
